Source: patent US20180208622A1, “STABLE CRYSTALLINE FORM OF REGADENOSON” (SUN PHARMACEUTICAL INDUSTRIES LIMITED, priority 2015, published 2018)

Experiments:
[1] = WO2008143667A1, cited from earlier work
[2] = Stability studies of crystal Form S, followed by XRPD; assay type: physicochemical
Method: XRD: X-ray powder diffraction analyses were carried out on a PANalytical Empyrean X-ray powder diffractometer using Cu K alpha radiation. The instrument was equipped with a line focus X-ray tube, and the voltage and amperage were set to 45 kV and 40 mA respectively. The scanning rate was set as 10 second per step and step size is set as 0.01°. The diffractometer was equipped with Pixcel^1D solid state detector and rotating sample stage. X-ray diffractometer was used to record diffractogram from 4° to 40° (2-theta).

CNC(=O)c1cnn(-c2nc(N)c3ncn([C@@H]4O[C@H](CO)[C@@H](O)[C@H]4O)c3n2)c1 [Form A, adenosine, 2-[4-[(methylamino)carbonyl]-1H-pyrazol-1-yl]]
stability of the crystalline form ([1]; among Form A, Form B, Form C and amorphous product): most stable form

CNC(=O)c1cnn(-c2nc(N)c3ncn([C@@H]4O[C@H](CO)C(O)C4O)c3n2)c1 (some centres unmarked) [Form S, adenosine, 2-[4-[(methylamino)carbonyl]-1H-pyrazol-1-yl]]
change in XRPD under stability conditions ([2]; 25° C. and 60% relative humidity for more than 6 months (FIG. 3)): no significant change
change in XRPD in accelerated stability studies ([2]; 40° C. and 75% relative humidity for more than 2 months (FIG. 2)): did not change significantly
stability when stored ([2]; stored at 25° C. and 60% relative humidity for at least 6 months): stable

CNC(=O)c1cnn(-c2nc(N)c3ncn([C@@H]4O[C@H](CO)[C@@H](O)[C@H]4O)c3n2)c1 [polymorph C, adenosine, 2-[4-[(methylamino)carbonyl]-1H-pyrazol-1-yl]]
behaviour at elevated temperatures ([1]; elevated temperatures): desolvates to an unstable form
